Assay results from patent publication US20170137481A1, “Use of Cell-Permeable Peptide Inhibitors of the JNK Signal Transduction Pathway for the Treatment of Various Diseases” (Xigen Inflammation Ltd., priority 2014, published 2017).
Non-standard residues stand in square brackets, D forms with d. No end group written: not given here.

Columns and labels:
[1] = test system: acute CYP-induced cystitis in female Sprague-Dawley rats; assay: CYP-induced acute cystitis, intravenous treatment, visceral pain; type: in vivo, rat; settings: XG-102 2 mg/kg i.v., ibuprofen 10 mg/kg i.v.; 24 h post-CYP
Description: (§1) This preclinical model is well-used to test therapeutic approaches for the treatment of interstitial cystitis/painful bladder syndrome (IC/PBS).
(§2) Animals were acclimatized to the laboratory conditions for at least 3 days before the start of any experiments. The animals were allocated to the following four experimental groups (n=10 animals per group):
Control rats received physiological saline under the same experimental conditions as CYP (final volume of 5 mL/kg, i.p.).
(§3) On the day of each experiment, weight of rats was recorded.
Standardized conditions including fixed time-of-day (a.m. to minimize the potential circadian variations in the behaviours responses) and single-experimenter testing of all animals were applied to minimize variability behavior-based pain testing. Visceral pain including allodynia and hyperalgesia was evaluated by applying to the lower abdomen, close to the urinary bladder, a set of 8 calibrated von Frey filaments of increasing forces (1, 2, 4, 6, 8, 10, 26 and 60 g) with an interstimulus interval of 5 seconds. Prior testing, the abdominal area designed for mechanical stimulation of each animal was shaved. Animals were then placed on a raised wire mesh floor under individual transparent Plexiglas box and acclimatized for at least 30 minutes before starting the von Frey test. […]

[2] = test system: acute CYP-induced cystitis in female Sprague-Dawley rats; assay: CYP-induced acute cystitis, intravesical treatment; type: in vivo, rat; settings: 50 mg/mL i.ves.; 24 h post-CYP
Description: as §1, §2
To induce acute cystitis, a single i.p. injection of CYP at a dose of 150 mg/kg in a final volume of 5 mL/kg was performed. Control rats received physiological saline under the same experimental conditions as CYP (final volume of 5 mL/kg, i.p.).
as §3
Standardized conditions including fixed time-of-day (a.m. to minimize the potential circadian variations in the behaviours responses) and single-experimenter testing of all animals were applied to minimize variability behavior-based pain testing. Visceral pain including allodynia and hyperalgesia was evaluated by applying to the lower abdomen, close to the urinary bladder, a set of 8 calibrated von Frey filaments of increasing forces (1, 2, 4, 6, 8, 10, 26 and 60 g) with an interstimulus interval of 5 seconds. Prior testing, the abdominal area designed for mechanical stimulation of each animal was shaved. Animals were then placed on a raised wire mesh floor under individual transparent Plexiglas box and acclimatized for at least 30 minutes before starting the von Frey test. Filaments were then applied 1-2 seconds through the mesh floor with enough strength to cause the filament to slightly bend. Each filament was tested 3 times. Care was taken to stimulate different areas within the lower abdominal region in the vicinity of the urinary bladder to avoid desensitization.
Urinary bladders were rapidly collected and cleaned from lipoid tissue. […] Finally, wall thickness was measured using a digital caliper by placing the bladder wall between the two outside jaws.

JNK = settings: JBDs; cited from earlier work
TC-3 cell cultures = assay: Cellular import of fluorescein labeled TAT and TAT-IB1(s) peptides; type: cell-based; settings: 1 μM
Description: The ability of the L- and D-enantiomeric forms of TAT and TAT-IB1(s) peptides (“TAT-IB peptides”) to enter cells was evaluated. L-TAT, D-TAT, L-TAT-IB1(s), and D-TAT-IB1(s) peptides [SEQ ID NOs: 5, 6, 9 and 12, respectively] were labeled by N-terminal addition of a glycine residue conjugated to fluorescein. Labeled peptides (1 μM) were added to TC-3 cell cultures, which were maintained as described in Example 3. At predetermined times cells were washed with PBS and fixed for five minutes in ice-cold methanol-acetone (1:1) before being examined under a fluorescence microscope. Fluorescein-labeled BSA (1 μM, 12 moles/mole BSA) was used as a control.

[3] = test system: JNKs from UV-light irradiated HeLa cells or IL-1 treated TC-3 cells; assay: c-Jun phosphorylation by activated JNKs pulled down with GST-Jun; type: biochemical; settings: 25 μM
Description: The effects of the L-TAT or L-TAT-IB1(s) peptides as defined herein on JNKs activated by stressful stimuli were evaluated using GST-Jun to pull down JNKs from UV-light irradiated HeLa cells or IL-1 treated PTC cells. PTC cells were cultured as described above. HeLa cells were cultured in DMEM medium supplemented with 10% Fetal Calf Serum, 100 μg/mL Streptomycin, 100 units/ml Penicillin and 2 mM Glutamine. One hour prior to being used for cell extract preparation, PTC cells were activated with IL-1 as described above, whereas HeLa cells were activated by UV-light (20 J/m^2). Cell extracts were prepared from control, UV-light irradiated HeLa cells and IL-1 treated TC-3 cells by scraping the cell cultures in lysis buffer (20 mM Tris-acetate, 1 mM EGTA, 1% Triton X-100, 10 mM p-nitrophenyl-phosphate, 5 mM sodium pyrophosphate, 10 mMP-glycerophosphate, 1 mM dithiothreitol). Debris was removed by centrifugation for five minutes at 15,000 rpm in an SS-34 Beckman rotor. One-hundred μg extracts were incubated for one hour at room temperature with one μg GST-jun (amino acids 1-89) and 10 μL of glutathione-agarose beads (Sigma). Following four washes with the scraping buffer, the beads were resuspended in the same buffer supplemented with L-TAT or L-TAT-IB1(s) peptides (25 μM) for 20 minutes. […]

[4] = test system: JNK mediated activation of c-Jun in HeLa cells; assay: GAL4-Jun luciferase reporter after MKK4/MKK7 co-transfection; type: cell-based; settings: 1 μM
Source text: To determine whether the cell-permeable peptides as defined herein could block JNK signaling in vivo, we used a heterologous GAL4 system. HeLa cells, cultured as described above, were co-transfected with the 5×GAL-LUC reporter vector together with the GAL-Jun expression construct (Stratagene) comprising the activation domain of c-Jun (amino acids 1-89) linked to the GAL4 DNA-binding domain. Activation of JNK was achieved by the co-transfection of vectors expressing the directly upstream kinases MKK4 and MKK7 (see Whitmarsh et al., Science 285: 1573 (1999)). Briefly, 3×10^5 cells were transfected with the plasmids in 3.5-cm dishes using DOTAP (Boehringer Mannheim) following instructions from the manufacturer. For experiments involving GAL-Jun, 20 ng of the plasmid was transfected with 1 μg of the reporter plasmid pFR-Luc (Stratagene) and 0.5 μg of either MKK4 or MKK7 expressing plasmids. Three hours following transfection, cell media were changed and TAT and TAT-IB1(s) peptides (1 μM) were added. The luciferase activities were measured 16 hours later using the “Dual Reporter System” from Promega after normalization to protein content. […] Because HeLa cells express JNK1 and JNK2 isoforms but not JNK3, we transfected cells with JNK3.

[5] = test system: recombinant JNK1, JNK2 and JNK3; assay: Solid phase kinase assay, phosphorylation of c-Jun, ATF2 and Elk1; type: biochemical; settings: dose response 0-25 μM
Description: (§4) The effects of the peptides on JNKs-mediated phosphorylation of their target transcription factors were investigated in vitro. Recombinant and non activated JNK1, JNK2 and JNK3 were produced using a TRANSCRIPTION AND TRANSLATION rabbit reticulocyte lysate kit (Promega) and used in solid phase kinase assays with c-jun, ATF2 and Elk1, either alone or fused to glutathione-S-transferase (GST), as substrates. Dose response studies were performed wherein L-TAT or L-TAT-IB1 (s) peptides (0-25 μM) were mixed with the recombinant JNK1, JNK2, or JNK3 kinases in reaction buffer (20 mM Tris-acetate, 1 mM EGTA, 10 mM p-nitrophenyl-phosphate (pNPP), 5 mM sodium pyrophosphate, 10 mM p-glycerophosphate, 1 mM dithiothreitol) for 20 minutes. The kinase reactions were then initiated by the addition of 10 mM MgCl2 and […] ^33P-gamma-dATP and 1 μg of either GST-Jun (aa 1-89), GST-AFT2 (aa 1-96) or GST-ELK1 (aa 307-428). GST-fusion proteins were purchased from Stratagene (La Jolla, Calif.).
(§5) Ten μL of glutathione-agarose beads were also added to the mixture. Reaction products were then separated by SDS-PAGE on a denaturing 10% polyacrylamide gel. […] The ability of D-TAT, D-TAT-IB1(s) and L-TAT-IB1(s) peptides (0-250 μM dosage study) to inhibit GST-Jun (aa 1-73) phosphorylation by recombinant JNK1, JNK2, and JNK3 by were analyzed as described above. […]

JNK3 = target: T1, JNK3 (Homo sapiens, UniProt P53779); assay: Solid phase kinase assay, JNK3 phosphorylation of Elk1; type: biochemical; settings: 0-25 μM
T1 construct: host or cells: cell-free: rabbit reticulocyte lysate transcription/translation
Description: as §4, §5

[6] = test system: AP-1 DNA binding complex in HeLa cell nuclear extracts; assay: AP-1 gel retardation assay; type: cell-based; settings: TNF-alpha 5 ng/ml
TC-3 cells = assay: IL-1 induced pancreatic beta-cell death with peptides; type: cell-based; settings: 1 μM single addition
Description: Inhibition of IL-1 induced pancreatic beta-cell death by the D-TAT-IB1(s) peptide was analyzed. TC-3 cells were incubated as described above for 30 minutes with one single addition of the indicated peptides (1 μM), then IL-1 (10 ng/ml) was added.
Apoptotic cells were then counted after two days of incubation with IL-1 by use of Propidium Iodide and Hoechst 33342 nuclear staining. A minimum of 1,000 cells were counted for each experiment. Standard Error of the Means (SEM) are indicated, n=5.
Long term inhibition of IL-1 P induced cell-death by the D-TAT-IB1 peptide was also analyzed. TC-3 cells were incubated as above for 30 minutes with one single addition of the indicated peptides (1 μM), then IL-1 (10 ng/ml) was added, followed by addition of the cytokine every two days. Apoptotic cells were then counted after 15 days of incubation with IL-1 by use of propidium iodide and Hoechst 33342 nuclear staining. […] A minimum of 1.000 cells were counted for each experiment.

T1 sequence (P53779 whole entry, species assumed): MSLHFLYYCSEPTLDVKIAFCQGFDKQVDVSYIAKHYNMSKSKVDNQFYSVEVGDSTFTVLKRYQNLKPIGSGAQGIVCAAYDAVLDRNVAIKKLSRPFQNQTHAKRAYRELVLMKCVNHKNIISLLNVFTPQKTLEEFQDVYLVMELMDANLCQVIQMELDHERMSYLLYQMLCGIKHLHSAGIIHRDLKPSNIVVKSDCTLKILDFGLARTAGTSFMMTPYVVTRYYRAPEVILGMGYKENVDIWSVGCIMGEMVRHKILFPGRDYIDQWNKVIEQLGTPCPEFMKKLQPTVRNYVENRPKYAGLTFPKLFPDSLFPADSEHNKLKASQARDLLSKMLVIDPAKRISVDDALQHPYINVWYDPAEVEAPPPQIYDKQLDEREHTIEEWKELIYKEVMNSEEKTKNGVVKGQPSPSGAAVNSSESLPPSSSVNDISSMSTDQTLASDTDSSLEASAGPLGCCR

Compound: CC(C)Cc1ccc(C(C)C(=O)O)cc1 (stereo not shown) [ibuprofen]
- nociceptive scores versus vehicle [1]: significantly decrease nociceptive scores
- nociceptive threshold versus vehicle [1]: significantly increased
- haemorrhage scores [2]: no significant change was observed regarding haemorrhage scores
- nociceptive scores versus vehicle [2]: significant decrease of nociceptive scores
- nociceptive threshold versus vehicle [2]: significantly increased
- urinary bladder wall thickness [2]: a significant decrease was observed in urinary bladder wall thickness

Compound: PGTGCGDTYRPKRPTTLNLFPQVPRSQDT (Description of sequence peptide IB1-long (see Table 1))
- efficiency in binding JNK versus c-Jun or ATF2 (JNK): approximately 100 fold

Compound: RRRQRRKKRG (D-amino acids; Description of sequence Peptide D-TAT (see Table 1))
- entry into cells (TC-3 cell cultures): efficiently and rapidly (less than five minutes) entered cells

Compound: GRKKRRQRRR (Description of sequence Peptide L-TAT (see Table 1))
- entry into cells (TC-3 cell cultures): efficiently and rapidly (less than five minutes) entered cells

Compound: TAT-IB(s): TAT-IB1(s) peptide of Examples 5 to 7, there the L-TAT-IB1(s) peptide (GRKKRRQRRRPPRPKRPTTLNLFPQVPRSQD)
- phosphorylation of c-Jun by activated JNKs [3]: efficiently prevented phosphorylation of c-Jun by activated JNKs
- activation of c-Jun in cells transfected with JNK3 [4]: inhibited JNK2 mediated activation of c-Jun
- activation of c-Jun following MKK4 and MKK7 mediated activation of JNK ([4]; luciferase 16 hours later): blocked activation of c-Jun following MKK4 and MKK7 mediated activation of JNK
- peptide dose with nearly complete inhibition of c-Jun, ATF2 and Elk1 phosphorylation by JNKs [5]: 2.5 µM
- inhibition of JNK3 phosphorylation of Elk1 (JNK3): absence of TAT-IB(s) inhibition of JNK3 phosphorylation of Elk1

Compound: GRKKRRQRRRPPRPKRPTTLNLFPQVPRSQD (Description of sequence L-TAT-IB1 (s) (see Table 1)) [L-TAT-IB1(s)]
- formation of the AP-1 DNA binding complex [6]: decrease the formation of the AP-1 DNA binding complex in the presence of TNF-alpha
- entry into cells (TC-3 cell cultures): efficiently and rapidly (less than five minutes) entered cells
- long term protection from IL-1 induced cell death (TC-3 cells; 15 days IL-1): not

Compound: IPSPSVEEPHKHRPTTLRLTTLGAQDS (Description of sequence Peptide IB2-long (see Table 1))
- efficiency in binding JNK versus c-Jun or ATF2 (JNK): approximately 100 fold

Compound: TDQSRPVQPFLNLTTPRKPRYTDPPRRRQRRKKRG ([dT][dD][dQ][dS][dR][dP][dV][dQ][dP][dF][dL][dN][dL][dT][dT][dP][dR][dK][dP][dR][dY][dT][dD][dP][dP][dR][dR][dR][dQ][dR][dR][dK][dK][dR]G) [D-TAT-IB1]
- IL-1 induced apoptosis (TC-3 cells; two days IL-1): decreased IL-1 induced apoptosis to a similar extent as L-TAT-IB peptides
